These results are taken from article PMC12026006, “Phosphodiesterase Inhibition and Immunotropic Activity of Dipyridamole Dynamic Derivatives” (Current Issues in Molecular Biology, 2025).

In this assay the target is T1, cAMP-phosphodiesterase (PDE).
T1 construct: gene PDE1A; enzyme of commercial Abcam colorimetric PDE kit
Briefly: colorimetric PDE activity kit ab139460, plate reader […] nm. Type of assay: biochemical. The note with it: two-range dilution, measuring error 10%, isoenzyme not told, read-out: IC50 **^1.

Like-named read-outs stand apart in the source and are kept apart here.

Turning to `OCCN(CCO)c1nc(N2CCCCC2)c2nc(N(CCO)CCO)nc(N3CCCCC3)c2n1` [10 (D10), 2,6-bis-diethanolamino-4,8-dipiperidinopyrimido(5,4-d)-pyrimidine], the IC50 (usually the point on the concentration scale where inhibition reaches its midpoint) stood at 5 µM. For the compound `CC(C)Cn1c(=O)n(C)c(=O)c2[nH]cnc21` [compound 11, 3-isobutyl-1-methylxanthine], the IC50 (control from kit) amounted to 5 µM.
